A word on the IC50: it is the midpoint of a concentration-inhibition curve. A lower IC50 goes with greater potency. As a reminder, the EC50 is the concentration giving half of the maximal effect.

IC50 and EC50 data for 30 molecules are collected here from patent US20240327408A1, “COMPOUNDS CONTAINING TETRAHYDRONAPHTHYRIDINONE OR TETRAHYDROPYRIDOPYRIMIDINONE SKELETON, PREPARATION METHOD THEREFOR AND PHARMACEUTICAL USE THEREOF” (CHINA PHARMACEUTICAL UNIVERSITY, priority 2021, published 2024).

One test concerns MV4; 11 cells. The experiment in a line: inhibiting the growth of MV4; 11 cells. It is filed as cell-based. As to conditions: Homo sapiens.
For another test, the target named is T1, hClpP (Homo sapiens, UniProt Q16740).
T1 construct: made in house
T1 sequence (Q16740 57-277): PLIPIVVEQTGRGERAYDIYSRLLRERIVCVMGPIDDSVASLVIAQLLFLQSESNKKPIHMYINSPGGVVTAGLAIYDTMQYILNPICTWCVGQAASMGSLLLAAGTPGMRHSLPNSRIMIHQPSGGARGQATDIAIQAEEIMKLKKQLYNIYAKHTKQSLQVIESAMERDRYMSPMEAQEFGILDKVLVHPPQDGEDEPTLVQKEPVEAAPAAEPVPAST
The experiment in a line: activating ClpP hydrolysis of FITC-casein (fluorescence kinetic detection). It is filed as biochemical. As to conditions: hClpP 1 μM, FITC-Casein 4 μM, 37° C. The method in brief: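 hClpP at 1 μM final preincubated with compounds (assay-buffer dilutions 200 μM–2 nM, before mixing) 30 min at 37 °C, then 4 μM final FITC-casein added. Fluorescence read kinetically at 37 °C every 1 min for 15 min, duplicate wells.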

The structures appear in SMILES notation.

`Cc1cccc(CN2CCc3c(c(=O)n(Cc4ccccc4)c4nccn34)C2)c1` [Compound I-110, 7-(3-methylbenzyl)-4-benzyl-6,7,8,9-tetrahydroimidazo[1,2-a]pyrido[3,4-e]pyrimidine-5(4H)-one] came in with an IC50 with MV4; 11 cells of under 1000 nM. On hClpP, this molecule gave an EC50 of under 1000 nM.
The molecule `O=c1c2c(c3cccnc3n1Cc1ccccc1)CCN(CC1CCCC1)C2` [Compound I-3, 6-benzyl-3-(cyclopentylmethyl)-2,3,4,6-tetrahydropyrido[3,4-c][1,8]naphthyridine-5-(1H)-one] showed an IC50 in the test with MV4; 11 cells of 1000 to 10000 nM. The molecule also had an EC50 at hClpP of 10000 to 100000 nM.
The corresponding values for `N#Cc1cccc(CN2CCc3c(c(=O)n(Cc4ccc(F)cc4F)c4nccn34)C2)c1` [Compound I-126, 7-(3-cyanobenzyl)-4-(2,4-difluorobenzyl)-6,7,8,9-tetrahydroimidazo[1,2-a]pyrido[3,4-e]pyrimidine-5(4H)-one] are under 1000 nM and under 1000 nM.
The like results for `O=c1c2c(n3ccnc3n1Cc1ccccc1)CCN(Cc1cccc(F)c1)C2` [Compound I-108, 7-(3-fluorobenzyl)-4-benzyl-6,7,8,9-tetrahydroimidazo[1,2-a]pyrido[3,4-e]pyrimidine-5(4H)-one] were, in that order, under 1000 nM and under 1000 nM.
The corresponding values for `Cc1cccc(CN2CCc3c(c(=O)n(Cc4ccccc4)c4ccnn34)C2)c1` [Compound I-158, 4-benzyl-7-(3-methylbenzyl)-6,7,8,9-tetrahydropyrazolo[1,5-a]pyrido[3,4-e]pyrimidine-5(4H)-one] are 1000 to 10000 nM and 1000 to 10000 nM.
In turn, `O=c1c2c(c3cccnc3n1Cc1ccccc1)CCN(Cc1cc(Cl)ccn1)C2` [Compound I-30, 6-benzyl-3-((4-chloropyridin-2-yl)methyl)-2,3,4,6-tetrahydropyrido[3,4-c][1,8]naphthyridine-5-(1H)-one] returned an IC50 in the test on MV4; 11 cells of 1000 to 10000 nM. The same molecule returned an EC50 on hClpP of 10000 to 100000 nM.
The corresponding values for `Cc1ncc(Cn2c(=O)c3c(c4cccnc42)CCN(Cc2ccccc2)C3)s1` [Compound I-69, 3-benzyl-6-((2-methylthiazol-5-yl)methyl)-2,3,4,6-tetrahydropyrido[3,4-c][1,8]naphthyridine-5-(1H)-one] are 1000 to 10000 nM and 10000 to 100000 nM.
The like results for `O=c1c2c(c3cocc3n1Cc1ccc(C(F)(F)F)cc1)CCN(Cc1ccccc1)C2` [Compound I-101, 7-benzyl-4-(4-trifluoromethylbenzyl)-6,7,8,9-tetrahydrofuro[3,4-C][2,7]naphthyridine-5(4H)-one] were, in that order, under 1000 nM and under 1000 nM.
Regarding `O=c1c2c(n3ccnc3n1Cc1ccc(Cl)cc1)CCN(Cc1ccccc1)C2` [Compound I-117, 7-benzyl-4-(4-chlorobenzyl)-6,7,8,9-tetrahydroimidazo[1,2-a]pyrido[3,4-e]pyrimidine-5(4H)-one], the concentration for half-maximal inhibition (IC50) with MV4; 11 cells was under 1000 nM. In addition, the EC50 at hClpP was under 1000 nM.
With `O=c1c2c(n3ccnc3n1Cc1ccc(Cl)cc1)CCN(Cc1cccc(Cl)c1)C2` [Compound I-119, 7-(3-chlorobenzyl)-4-(4-chlorobenzyl)-6,7,8,9-tetrahydroimidazo[1,2-a]pyrido[3,4-e]pyrimidine-5(4H)-one], the IC50 with MV4; 11 cells is under 1000 nM. Moreover, the EC50 on hClpP was under 1000 nM.
Consider `O=c1c2c(c3cccnc3n1Cc1ccc(Br)cc1)CCN(Cc1cccc(Br)c1)C2` [Compound I-79, 3-(3-bromobenzyl)-6-(4-bromobenzyl)-2,3,4,6-tetrahydropyrido[3,4-c][1,8]naphthyridine-5-(1H)-one], for which the 50% inhibitory concentration (IC50) in the test with MV4; 11 cells was under 1000 nM. On hClpP, this molecule had an EC50 of under 1000 nM.
Consider `O=c1c2c(n3cncc3n1Cc1ccc(C(F)(F)F)cc1)CCN(Cc1ccccc1)C2` [Compound I-164, 7-benzyl-4-(4-trifluoromethylbenzyl)-6,7,8,9-tetrahydroimidazo[1,5-a]pyrido[3,4-e]pyrimidine-5(4H)-one], for which the IC50 in the test on MV4; 11 cells lay within 1000 to 10000 nM. The molecule also displayed an EC50 on hClpP of 1000 to 10000 nM.
In the test on MV4; 11 cells, `Cc1ccc(CN2CCc3c(c(=O)n(Cc4ccccc4)c4ncccc34)C2)cc1` [Compound I-21, 6-benzyl-3-(4-methylbenzyl)-2,3,4,6-tetrahydropyrido[3,4-c][1,8]naphthyridine-5-(1H)-one] registered an IC50 of under 1000 nM. Moreover, the EC50 on hClpP is 1000 to 10000 nM.
The corresponding values for `CCc1ccc(Cn2c(=O)c3c(n4ccnc24)CCN(Cc2cccc(C)c2)C3)cc1` [Compound I-140, 7-(3-methylbenzyl)-4-(4-ethylbenzyl)-6,7,8,9-tetrahydroimidazo[1,2-a]pyrido[3,4-e]pyrimidine-5(4H)-one] are under 1000 nM and under 1000 nM.
The like results for `O=c1c2c(c3cccnc3n1Cc1ccncc1)CCN(Cc1ccccc1)C2` [Compound I-63, 3-benzyl-6-(pyridin-4-ylmethyl)-2,3,4,6-tetrahydropyrido[3,4-c][1,8]naphthyridine-5-(1H)-one] were, in that order, 1000 to 10000 nM and 10000 to 100000 nM.
With `Cc1cccc(CN2CCc3c(c(=O)n(Cc4ccccc4)c4ncccc34)C2)c1` [Compound I-15, 6-benzyl-3-(3-methylbenzyl)-2,3,4,6-tetrahydropyrido[3,4-c][1,8]naphthyridine-5-(1H)-one], the half-inhibitory concentration (IC50) in the test with MV4; 11 cells is under 1000 nM. On hClpP, this molecule gave a 50% effective concentration (EC50) of under 1000 nM.
Take `Cn1ccc(Cn2c(=O)c3c(c4cccnc42)CCN(Cc2ccccc2)C3)n1` [Compound I-58, 3-benzyl-6-((1-methyl-1H-pyrazol-3-yl)methyl)-2,3,4,6-tetrahydropyrido[3,4-c][1,8]naphthyridine-5-(1H)-one]: the IC50 in the test with MV4; 11 cells was 1000 to 10000 nM. The molecule further came in with an EC50 on hClpP of 10000 to 100000 nM.
As for `O=c1c2c(n3nccc3n1Cc1ccccc1)CCN(Cc1cccc(Cl)c1)C2` [Compound I-156, 4-benzyl-7-(3-chlorobenzyl)-6,7,8,9-tetrahydropyrazolo[1,5-a]pyrido[3,4-e]pyrimidine-5(4H)-one], the IC50 in the test with MV4; 11 cells lay in the range of 1000 to 10000 nM. Besides, the concentration giving a half-maximal response (EC50) on hClpP lay within 1000 to 10000 nM.
In the case of `COc1ccc(Cn2c(=O)c3c(n4ccnc24)CCN(Cc2ccccc2)C3)cc1` [Compound I-142, 7-benzyl-4-(4-methoxybenzyl)-6,7,8,9-tetrahydroimidazo[1,2-a]pyrido[3,4-e]pyrimidine-5(4H)-one], the IC50 with MV4; 11 cells is under 1000 nM. In addition, at hClpP, the 50% effective concentration (EC50) is under 1000 nM.
With `O=c1c2c(c3cccnc3n1Cc1ccccc1Cl)CCN(Cc1ccccc1)C2` [Compound I-41, 3-benzyl-6-(2-chlorobenzyl)-2,3,4,6-tetrahydropyrido[3,4-c][1,8]naphthyridine-5-(1H)-one], the IC50 in the test on MV4; 11 cells is under 1000 nM. Besides, at hClpP, the half-maximal effective concentration (EC50) was 1000 to 10000 nM.
The like results for `O=c1c2c(n3ncnc3n1Cc1ccc(C(F)(F)F)cc1)CCN(Cc1cccc(Cl)c1)C2` [Compound I-150, 4-(4-trifluoromethylbenzyl)-7-(3-chlorobenzyl)-6,7,8,9-tetrahydropyrido[3,4-e][1,2,4]triazolo[1,5-a]pyrimidine-5(4H)-one] were, in that order, 1000 to 10000 nM and 1000 to 10000 nM.
Consider `O=c1c2c(c3cccnc3n1Cc1ccc(Br)cc1)CCN(Cc1cccc(Cl)c1)C2` [Compound I-78, 3-(3-chlorobenzyl)-6-(4-bromobenzyl)-2,3,4,6-tetrahydropyrido[3,4-c][1,8]naphthyridine-5-(1H)-one], for which the 50% inhibitory concentration (IC50) in the test with MV4; 11 cells is under 1000 nM. On hClpP, the EC50 is under 1000 nM.
Regarding `N#Cc1cccc(CN2CCc3c(c(=O)n(Cc4ccc(Cl)cc4)c4nccn34)C2)c1` [Compound I-121, 7-(3-cyanobenzyl)-4-(4-chlorobenzyl)-6,7,8,9-tetrahydroimidazo[1,2-a]pyrido[3,4-e]pyrimidine-5(4H)-one], the IC50 with MV4; 11 cells was under 1000 nM. The molecule further gave an EC50 on hClpP of under 1000 nM.
In turn, `O=c1c2c(c3cccnc3n1Cc1cccc(Cl)c1)CCN(Cc1ccccc1)C2` [Compound I-47, 3-benzyl-6-(3-chlorobenzyl)-2,3,4,6-tetrahydropyrido[3,4-c][1,8]naphthyridine-5-(1H)-one] had an IC50 in the test on MV4; 11 cells of under 1000 nM. The EC50 at hClpP is under 1000 nM.
The molecule `Cc1ccc(Cn2c(=O)c3c(n4ccnc24)CCN(Cc2cccc(F)c2)C3)cc1` [Compound I-133, 7-(3-fluorobenzyl)-4-(4-methylbenzyl)-6,7,8,9-tetrahydroimidazo[1,2-a]pyrido[3,4-e]pyrimidine-5(4H)-one] had a concentration for half-maximal inhibition (IC50) with MV4; 11 cells of under 1000 nM. On hClpP, this molecule yielded an EC50 of under 1000 nM.
In the test with MV4; 11 cells, `Cc1ccccc1Cn1c(=O)c2c(n3ccnc13)CCN(Cc1ccccc1)C2` [Compound I-106, 7-benzyl-4-(2-methylbenzyl)-6,7,8,9-tetrahydroimidazo[1,2-a]pyrido[3,4-e]pyrimidine-5(4H)-one] came in with an IC50 of 1000 to 10000 nM. On hClpP, this molecule showed an EC50 of 1000 to 10000 nM.
In the case of `CN(C)c1ccc(Cn2c(=O)c3c(c4cccnc42)CCN(Cc2cccc(C#N)c2)C3)cc1` [Compound I-90, 6-(4-dimethylaminobenzyl)-3-(3-cyanobenzyl)-2,3,4,6-tetrahydropyrido[3,4-c][1,8]naphthyridine-5-(1H)-one], the 50% inhibitory concentration (IC50) in the test with MV4; 11 cells is 1000 to 10000 nM. At hClpP, this molecule had an EC50 of 1000 to 10000 nM.
`O=c1c2c(n3cccc3n1Cc1ccc(C(F)(F)F)cc1)CCN(Cc1ccccc1)C2` [Compound I-168, 3-benzyl-6-(4-trifluoromethylbenzyl)-1,2,3,4-tetrahydropyrido[3,4-e]pyrrolo[1,2-a]pyrimidine-5(6H)-one]: the IC50 in the test with MV4; 11 cells was under 1000 nM. For the same molecule, the EC50 on hClpP was under 1000 nM.
Molecule `O=c1c2c(n3ccnc3n1Cc1ccc3c(c1)OCO3)CCN(Cc1cccc(Cl)c1)C2` [Compound I-147, 7-(3-chlorobenzyl)-4-([1,3]benzodioxol-5-ylmethyl)-6,7,8,9-tetrahydroimidazo[1,2-a]pyrido[3,4-e]pyrimidine-5(4H)-one] returned an IC50 in the test on MV4; 11 cells of 1000 to 10000 nM. The concentration giving a half-maximal response (EC50) at hClpP lay in the range of 1000 to 10000 nM.
Consider `N#Cc1cccc(CN2CCc3c(c(=O)n(Cc4ccc(C(F)(F)F)cc4)c4ncccc34)C2)c1` [Compound I-83, 6-(4-trifluoromethylbenzyl)-3-(3-cyanobenzyl)-2,3,4,6-tetrahydropyrido[3,4-c][1,8]naphthyridine-5-(1H)-one], for which the IC50 with MV4; 11 cells was under 1000 nM. For the same molecule, the EC50 on hClpP was under 1000 nM.
